In PubChem BioAssay AID588639 (Sanford-Burnham Center for Chemical Genomics, 2011):
The source made the active and inactive calls. No rule for the calls is given here.

Target: Alkaline phosphatase, tissue-nonspecific isozyme (Homo sapiens) (UniProt P05186)
Assay: human TNAP enzyme inhibitors, SAR follow-up, selectivity assay for mouse IAP inhibitor project, biochemical, set 2 (AID 588639)
Settings: purified human TNAP enzyme activity, counter-screen for mouse IAP

Chain of Alkaline phosphatase, tissue-nonspecific isozyme (Homo sapiens) (P05186 whole entry, looked up): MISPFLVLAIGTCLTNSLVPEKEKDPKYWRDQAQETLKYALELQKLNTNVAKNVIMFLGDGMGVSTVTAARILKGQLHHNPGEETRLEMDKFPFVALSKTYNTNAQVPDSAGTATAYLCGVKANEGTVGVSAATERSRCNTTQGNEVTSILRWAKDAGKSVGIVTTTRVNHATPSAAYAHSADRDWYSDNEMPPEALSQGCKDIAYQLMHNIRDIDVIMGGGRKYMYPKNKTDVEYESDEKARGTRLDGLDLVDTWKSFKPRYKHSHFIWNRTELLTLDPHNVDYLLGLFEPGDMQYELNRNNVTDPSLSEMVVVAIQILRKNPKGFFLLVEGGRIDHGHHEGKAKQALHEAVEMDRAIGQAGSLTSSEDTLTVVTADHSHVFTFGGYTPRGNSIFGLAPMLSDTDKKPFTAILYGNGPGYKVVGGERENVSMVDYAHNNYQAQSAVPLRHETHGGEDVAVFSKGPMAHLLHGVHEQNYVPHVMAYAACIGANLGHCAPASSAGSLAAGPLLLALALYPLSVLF

Structure (SMILES)	IC50
O=C(N/N=C/c1ccccc1F)c1ccc(O)cc1	> 100 µM (inactive)
O=C(CCNS(=O)(=O)c1ccc2[nH]c(=O)oc2c1)NCc1cccc(C(F)(F)F)c1	> 100 µM (inactive)
O=C(N/N=C/c1ccccc1F)c1ccccc1OCc1ccccc1	> 100 µM (inactive)
O=C(CCNS(=O)(=O)c1ccc2[nH]c(=O)oc2c1)NCc1ccccc1Cl	> 100 µM (inactive)
COc1ccc(NC(=O)CCNS(=O)(=O)c2ccc3ccccc3c2)cc1OC	> 100 µM (inactive)
COc1ccc(CNS(=O)(=O)c2ccc3[nH]c(=O)oc3c2)cc1	> 100 µM (inactive)
COc1ccc(CNC(=O)CCNS(=O)(=O)c2ccc3[nH]c(=O)oc3c2)cc1	> 100 µM (inactive)
O=C(CCS(=O)(=O)Nc1ccc2[nH]c(=O)oc2c1)NCc1cccc(F)c1	> 100 µM (inactive)
O=C(N/N=C/c1ccc(Cl)c(Cl)c1)c1cc(O)c(O)c(O)c1	> 100 µM (inactive)
CCOc1cc(C(=O)N/N=C/c2ccccc2F)cc(OCC)c1OCC	> 100 µM (inactive)
COc1ccc(NC(=O)CCNS(=O)(=O)c2ccc3c(c2)CCC3)cc1OC	> 100 µM (inactive)
COc1ccc(CNC(=O)CCNS(=O)(=O)c2ccc3ccccc3c2)c(OC)c1	> 100 µM (inactive)
O=C(N/N=C/c1ccccc1F)c1ccc(O)cc1O	> 100 µM (inactive)

More lines, now with the values ahead:

IC50	Structure (SMILES)
> 100 µM (inactive)	CC(C)c1ccc(NC(=O)C2CCCN(S(=O)(=O)c3ccc4c(c3)oc(=O)n4C)C2)cc1 (configuration not stated)
> 100 µM (inactive)	Cc1ccc(CNC(=O)CCNS(=O)(=O)c2ccc3[nH]c(=O)oc3c2)cc1
> 100 µM (inactive)	COc1ccc(CNC(=O)C2CCCN(S(=O)(=O)c3ccc4[nH]c(=O)oc4c3)C2)cc1 (configuration not stated)
> 100 µM (inactive)	COc1ccc(CNC(=O)CCCNS(=O)(=O)c2ccc3[nH]c(=O)oc3c2)cc1OC
> 100 µM (inactive)	O=C(CNS(=O)(=O)c1ccc2[nH]c(=O)oc2c1)NCCc1ccc2c(c1)OCO2
> 100 µM (inactive)	Cc1ccc(NC(=O)CCNS(=O)(=O)c2ccc3c(c2)oc(=O)n3C)c(C)c1
> 100 µM (inactive)	COc1ccc(OC)c(NC(=O)CCNS(=O)(=O)c2ccc3c(c2)oc(=O)n3C)c1
> 100 µM (inactive)	N#Cc1cccc(NC(=O)CNS(=O)(=O)c2ccc3[nH]c(=O)oc3c2)c1
> 100 µM (inactive)	COc1ccc(NS(=O)(=O)c2ccc3[nH]c(=O)oc3c2)cc1OC
> 100 µM (inactive)	COc1ccc(CNC(=O)CNS(=O)(=O)c2ccc3[nH]c(=O)oc3c2)c(OC)c1
> 100 µM (inactive)	Cc1ccc(C)c(NC(=O)CCNS(=O)(=O)c2ccc3c(c2)CCC3)c1
> 100 µM (inactive)	O=C(CCNS(=O)(=O)c1ccc2[nH]c(=O)oc2c1)NCc1ccc2c(c1)OCO2
> 100 µM (inactive)	CC(C)c1ccc(NC(=O)CCNS(=O)(=O)c2ccc3c(c2)oc(=O)n3C)cc1
> 100 µM (inactive)	Cc1ccc(C)c(NC(=O)C2CCCN(S(=O)(=O)c3ccc4c(c3)oc(=O)n4C)C2)c1 (configuration not stated)
